The source of these data is patent US20240173311A1, “METHODS AND COMPOSITIONS FOR MODULATING FGF ACTIVITY” (Recovery Therapeutics, Inc., priority 2021, published 2024).

In one data set the test system is human coronavirus 229E. Briefly: Anti-coronavirus activity, cell survival (XTT) of infected HAP1 cells. The data set is classed as cell-based. The following applies: in combination with FGF-2 (1 ng/ml), compound 0.002-1 μM, 4 days incubation, FIG. 7. The procedure: FIG. 7 is a graph showing the cell survival of HAP1 cells infected with human coronavirus 229E following a 4-day incubation period in the presence of Compound 1o. Compound 1o (0.002 μM, 0.008 μM, 0.04 μM, 0.2 μM, or 1 uM) and FGF-2 (1 ng/mL) were added on Day -1, Day 0, Day 1, and Day 2 of infection by human coronavirus 229E.
(§1) Compound 10 was evaluated for its ability to reduce human coronavirus 229E induced cellular toxicity in HAP1 cells with and without the addition of a low concentration of FGF-2. HAP1 cells were seeded at a density of 1×10^4 cells/well in a volume of 100 μL in DMEM supplemented with 10% FBS. Following a 24-hour incubation at 37° C./5% CO2 the cells were pre-incubated with and without (media only) exogenous FGF-2 (1 ng/ml) and Compound 10 (0.002 μM, 0.008 μM, 0.04 μM, 0.2 μM, or 1 μM; plated in triplicate) for 24 hours prior (D-1) to the addition of human coronavirus 229E at a pre-determined titer. On the day of viral infection (D0), and one and two days thereafter (D1 and D2), freshly prepared FGF-2 and Compound 10 were added. The cultures were incubated for 4 days at 37° C./5% CO2, after which the cells were stained for cell survival with the tetrazolium dye XTT.
Background: Tetrazolium assays rely on reduction of a dye to a coloured formazan, in cell work by metabolically active cells.

The target in data set [1] is T1, purified FGF-2/FGFR1 complex (Homo sapiens, UniProt P09038+P11362).
T1 construct: made in house; host or cells: Escherichia coli BL21 (DE3) Star
Briefly: Thermal stability assay (TSA) melting curve of the complex (FIG. 1). The following applies: 25 μM compound, versus complex alone. The data set is classed as binding. The procedure:
FIG. 1 is a graph showing the thermal stability assay (TSA) data of purified FGF-2.FGFR1 complex with and without the addition of Compound 1o (dotted line: without Compound 1o; solid line: 25 μM Compound 1o).
TSA was utilized to biophysically characterize the recombinant human FGFR1/FGF2 complex in the presence or absence of selected compounds of formula (I), Compounds 1, 2a-2f, 20, 5, 60, and 8-13. Compound 1 was prepared according to the procedures described in Example 1, and the other compounds were obtained from commercial sources. The assay functions by protein denaturation over a temperature gradient. […] Changes in the melting temperature of the protein complex in the presence of each compound were monitored and compounds were screened/ranked using this method.
Complex formation was verified by loading the complexed material on a size exclusion column (superdex 10 300GL S200) and observing the monodisperse peak corresponding to the FGF2/FGFR1 complex (˜ 40 kDa). […] The samples were processed using a Bio-Rad CFX C96 Touch quantitative polymerase chain reaction and run using the FRET assay settings with a heating ramp of 0.3° C./s cycling from 4 to 100° C. Data analysis was performed using the Bio-Rad CFX Manager Software (version 3.1, Bio-Rad) and changes in the melting temperature (Tm) of the complex in the presence of each compound were monitored. […]

The test system of another data set is HAP1 cells. Briefly: Cell survival (XTT) of HAP1 cells in the absence of virus. The data set is classed as cell-based. The following applies: compound 0.002-1 μM, FGF-2 1 ng/ml. As to the method: as §1
The target in a further data set is FGFR1 (Homo sapiens, UniProt P11362). The data set can be described thus: Phosphorylation of FGFR1 in a cell-based system. The note with it: cells expressing FGFR1, increasing concentrations, submaximal concentration of FGF-2, FIG. 2. As to the method:
FIG. 2 is a graph showing the phosphorylation of FGFR1 in the presence of increasing concentrations of Compound 1o in a cell-based system.
Cells expressing FGFR1 were exposed to increasing concentrations of Compound 10 in the presence of a submaximal concentration of FGF-2. Cells were then lysed, and the relative phosphorylation of FGFR1 was assessed using antibodies to non-phosphorylated and phosphorylated FGFR1. The results are shown in FIG. 2, which is a graph showing the phosphorylation of FGFR1 in the presence of increasing concentrations of Compound 10.

The test system of data set [2] is rodent model of stroke recovery (MCAO). Briefly: Stroke recovery in vivo after middle cerebral artery occlusion (MCAO). The note with it: rat MCAO, 10 mg/kg i.v. on Day 1, 2, 3 after MCAO. As to the method: Compound 10 was tested for its effectiveness in a rodent model of stroke recovery. Twenty male Sprague Dawley Rats (Charles River Laboratories) each weighing 300-400 g were used in this experiment. First, anesthesia was induced in an induction chamber with 2-3% isoflurane in N2O:O2 (2:1) and maintained with 1-1.5% isoflurane via face mask. Adequate depth of anesthesia was assessed by lack of withdrawal to hindlimb pinch and loss of eyeblink reflex. Once anesthetized, animals received cefazolin sodium (40 mg/kg, i.p.) and buprenorphine SR (0.9-1 mg/kg, s.c.). Cefazolin was used as a prophylactic antibiotic. A veterinary ophthalmic ointment (Sodium Chloride hypertonicity ophthalmic ointment (Muro 128 Sterile Ophthalmic 5% Ointment)) was applied to the eyes. […]
Behavioral evaluations of sensorimotor function were done by investigators blinded to treatment assignment. […] For the forelimb-placing test, the examiner held the rat close to a tabletop and scored the rat's ability to place the forelimb on the tabletop in response to whisker, visual, tactile, or proprioceptive stimulation. Similarly, for the hindlimb placing test, the examiner assessed the rat's ability to place the hindlimb on the tabletop in response to tactile and proprioceptive stimulation. […]

T1 sequence (P11362 142-365 limits assumed): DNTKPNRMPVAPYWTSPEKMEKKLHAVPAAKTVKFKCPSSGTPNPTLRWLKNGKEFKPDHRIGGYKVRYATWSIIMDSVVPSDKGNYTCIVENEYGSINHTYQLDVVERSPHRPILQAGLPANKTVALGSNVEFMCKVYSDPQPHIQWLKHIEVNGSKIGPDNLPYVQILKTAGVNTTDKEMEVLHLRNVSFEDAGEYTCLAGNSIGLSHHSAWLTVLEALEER
T1 sequence (P09038 156-288 limits assumed): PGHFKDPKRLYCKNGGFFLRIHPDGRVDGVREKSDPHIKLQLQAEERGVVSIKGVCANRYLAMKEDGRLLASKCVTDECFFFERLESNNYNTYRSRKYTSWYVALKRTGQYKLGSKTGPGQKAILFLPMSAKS
FGFR1, sequence (P11362 22-822, species assumed): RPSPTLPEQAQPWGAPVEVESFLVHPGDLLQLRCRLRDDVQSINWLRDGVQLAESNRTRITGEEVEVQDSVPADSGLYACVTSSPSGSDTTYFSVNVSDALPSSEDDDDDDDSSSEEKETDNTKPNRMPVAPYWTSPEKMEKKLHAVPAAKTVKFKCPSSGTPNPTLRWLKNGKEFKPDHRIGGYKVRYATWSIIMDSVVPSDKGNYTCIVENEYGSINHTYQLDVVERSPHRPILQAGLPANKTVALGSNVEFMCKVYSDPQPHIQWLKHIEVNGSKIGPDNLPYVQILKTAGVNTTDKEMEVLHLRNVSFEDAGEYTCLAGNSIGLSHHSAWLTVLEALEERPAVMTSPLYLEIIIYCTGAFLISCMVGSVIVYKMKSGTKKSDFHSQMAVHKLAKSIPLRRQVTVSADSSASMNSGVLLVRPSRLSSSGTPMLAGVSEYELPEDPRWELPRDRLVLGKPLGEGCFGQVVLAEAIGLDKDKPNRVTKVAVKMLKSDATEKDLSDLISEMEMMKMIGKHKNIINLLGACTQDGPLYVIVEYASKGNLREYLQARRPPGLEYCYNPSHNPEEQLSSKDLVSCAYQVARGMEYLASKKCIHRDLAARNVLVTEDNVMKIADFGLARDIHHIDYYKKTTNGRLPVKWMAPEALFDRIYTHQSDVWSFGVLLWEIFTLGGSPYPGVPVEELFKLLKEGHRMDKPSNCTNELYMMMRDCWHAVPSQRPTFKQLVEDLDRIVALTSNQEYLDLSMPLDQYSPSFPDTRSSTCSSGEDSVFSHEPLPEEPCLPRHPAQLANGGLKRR
FGFR1, sequence (P09038 143-288 partner, species assumed): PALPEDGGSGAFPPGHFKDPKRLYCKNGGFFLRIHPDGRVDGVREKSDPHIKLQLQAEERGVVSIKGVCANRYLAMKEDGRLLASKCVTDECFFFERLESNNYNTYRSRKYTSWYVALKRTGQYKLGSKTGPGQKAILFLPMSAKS

Take `CCN(CC)c1ccc(C=O)cc1` [Compound 10, 4-diethylaminobenzaldehyde]: in the data set with human coronavirus 229E, the “cell survival of HAP1 cells infected with human coronavirus 229E” value was “increases cell survival”. The “shift of the TSA melting curve / stability of the complex” value in data set [1] is “increased stability of the complex”. For the same compound, in the data set with HAP1 cells, the “cell survival in the absence of the virus” value is reported as “no effect on cell survival”. Further, the “relative phosphorylation of FGFR1” value on FGFR1 is “augmented the effects of FGF-2”. In addition, the “rise in body weight following surgery” value in data set [2] is reported as “not affected”. Also, the “sensorimotor recovery (forelimb placing, hindlimb placing, body swing tests)” value in data set [2] (up to Day 21, versus vehicle, p<0.001 two-way repeated-measures ANOVA) is “clear and significant augmentation of sensorimotor recovery”.
